melting point: 141 to 143 °C
Compound: Cc1ccn(-c2ccc(C(=O)N3Cc4cccn4Cc4ccccc43)c(Cl)c2)n1 [Isomer A]

— US6437006B1, “Pharmaceutical carrier formulation” (American Cyanamid Company, priority 1999, dated 2002)
